# Results taken from the supplement of paper PMC10307832.
# How the values were obtained:
# Assay in all cases: relative viability (nuclei count vs DMSO), 5 days (fraction); higher = more cells survive
# Selisistat + OSI-027 = compound: C1CC(C2=C(C1)C3=C(N2)C=CC(=C3)Cl)C(=O)N [Selisistat] + COc1cccc2cc(-c3nc([C@H]4CC[C@H](C(=O)O)CC4)n4ncnc(N)c34)[nH]c12 [OSI-027] (partner 0.5 µM)
# How it was run: (§1)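 Each reported value is a median over duplicate plates. It expresses relative viability: treated-well nuclei count divided by vehicle-well nuclei count. Lung cancer cell lines in 1536-well plates were dosed by pin tool a day after seeding, alone with one drug or with a fixed anchor-drug dose plus five library-drug doses (not always all listed) in √10 steps, and nuclei were counted after 5 days.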
# Selisistat + Tozasertib = compound: C1CC(C2=C(C1)C3=C(N2)C=CC(=C3)Cl)C(=O)N [Selisistat] + Cc1cc(Nc2cc(N3CCN(C)CC3)nc(Sc3ccc(NC(=O)C4CC4)cc3)n2)n[nH]1 [Tozasertib] (partner 0.1 µM)
# How it was run: as §1
# Selisistat + AZD7762 = compound: C1CC(C2=C(C1)C3=C(N2)C=CC(=C3)Cl)C(=O)N [Selisistat] + NC(=O)Nc1cc(-c2cccc(F)c2)sc1C(=O)N[C@H]1CCCNC1 [AZD7762] (partner 0.2 µM)
# How it was run: as §1
# Serdemetan + Alpelisib = compound: c1ccc2c(CCNc3ccc(Nc4ccncc4)cc3)c[nH]c2c1 [Serdemetan] + Cc1nc(NC(=O)N2CCC[C@H]2C(N)=O)sc1-c1ccnc(C(C)(C)C(F)(F)F)c1 [Alpelisib] (partner 2 µM)
# How it was run: as §1
Cell Line,relative viability (Selisistat + OSI-027; first compound 0.4 µM),relative viability (Selisistat + OSI-027; first compound 1.265 µM),relative viability (Selisistat + OSI-027; first compound 4 µM),relative viability (Selisistat + OSI-027; first compound 12.65 µM),relative viability (Selisistat + OSI-027; first compound 40 µM),relative viability (Selisistat + Tozasertib; first compound 0.4 µM),relative viability (Selisistat + Tozasertib; first compound 1.265 µM),relative viability (Selisistat + Tozasertib; first compound 4 µM),relative viability (Selisistat + Tozasertib; first compound 12.65 µM),relative viability (Selisistat + Tozasertib; first compound 40 µM),relative viability (Selisistat + AZD7762; first compound 0.4 µM),relative viability (Selisistat + AZD7762; first compound 1.265 µM),relative viability (Selisistat + AZD7762; first compound 12.65 µM),relative viability (Selisistat + AZD7762; first compound 40 µM),relative viability (Serdemetan + Alpelisib; first compound 0.04 µM),relative viability (Serdemetan + Alpelisib; first compound 0.1265 µM),relative viability (Serdemetan + Alpelisib; first compound 0.4 µM),relative viability (Serdemetan + Alpelisib; first compound 4 µM),relative viability (Selisistat + AZD7762; first compound 4 µM),relative viability (Serdemetan + Alpelisib; first compound 1.265 µM)
NCI-H3122,0.9,0.933,0.444,0.892,1.01,0.367,0.352,0.347,0.34,0.372,1.03,0.95,1.04,1,0.809,0.715,0.779,0.771,–,–
NCI-H1975,0.678,0.718,0.62,0.659,0.626,0.715,0.63,0.69,0.48,0.396,0.684,0.661,0.647,0.646,0.68,0.675,0.666,0.803,0.581,0.637
NCI-H1944,0.485,0.394,–,0.433,0.441,0.273,0.243,–,0.231,0.256,0.523,0.509,0.653,0.586,0.806,0.753,0.715,0.453,0.428,–
LU99A,0.345,0.283,0.344,0.288,0.297,0.298,0.249,0.319,0.313,0.281,0.372,0.256,0.436,0.338,0.516,0.576,0.342,0.17,0.392,0.175
SW 1573,0.704,0.616,0.664,0.772,0.545,0.206,0.175,0.175,0.206,0.184,–,–,–,–,0.7,0.791,0.722,0.385,–,0.463
NCI-H2347,0.61,0.403,0.246,0.482,0.46,0.606,0.733,0.427,0.617,0.583,0.733,0.66,0.774,0.795,0.936,1.02,1.01,0.703,–,0.866
NCI-H2009,0.659,0.662,0.424,0.509,0.535,0.743,0.734,0.765,0.694,0.744,–,–,–,–,1.18,1.11,1.08,0.964,–,1.12
HCC-15,0.81,0.676,–,0.622,0.618,0.407,0.375,–,0.311,0.252,1.34,1.23,1.3,1.55,0.924,0.825,0.856,0.579,1.16,0.531
HCC-44,0.591,–,–,0.457,0.586,0.968,–,–,0.848,0.931,1,1.04,1.02,1.15,0.714,0.772,0.75,0.636,1.1,0.532
COR-L23,0.866,0.803,0.799,0.653,0.653,0.243,0.241,0.218,0.171,0.183,–,–,–,–,0.788,0.767,0.763,0.703,–,0.821
NCI-H1299,–,–,–,–,–,–,–,–,–,–,–,–,–,–,0.992,0.996,1.03,0.968,–,0.96
NCI-H1650,0.633,0.517,0.551,0.534,0.611,0.355,0.301,0.404,0.34,0.334,–,–,–,–,–,–,–,–,–,–
COR-L 105,0.755,0.624,–,0.712,0.584,0.344,0.344,–,0.315,0.336,–,–,–,–,0.906,1.08,0.922,0.865,–,1.04
ChaGo-K-1,0.588,0.461,0.492,0.535,0.617,0.213,0.214,0.232,0.186,0.245,0.787,0.828,0.838,0.8,–,–,–,–,0.883,–
NCI-H2228,0.57,0.541,0.484,0.651,0.569,0.315,0.223,0.29,0.315,0.217,–,–,–,–,0.762,0.554,0.46,0.294,–,0.307
NCI-H1648,0.274,0.274,0.264,0.237,0.277,0.511,0.513,0.609,0.395,0.64,0.736,0.64,0.731,0.768,–,–,–,–,–,–
NCI-H661,0.749,0.81,0.744,0.629,0.564,0.353,0.354,0.379,0.352,0.352,–,–,–,–,0.759,0.429,0.676,0.428,–,0.197
NCI-H1563,0.761,0.761,0.76,0.655,0.703,–,–,–,–,–,–,–,–,–,0.89,0.893,0.931,0.763,–,0.815
A549,–,–,–,–,–,–,–,–,–,–,–,–,–,–,0.753,0.722,0.727,0.252,–,0.569
NCI-H522,0.744,0.677,0.61,0.756,0.681,0.569,0.593,0.509,0.608,0.52,0.63,0.672,0.9,1.01,–,–,–,–,0.622,–
NCI-H1623,0.421,0.413,0.366,0.46,0.451,0.445,0.433,0.355,0.407,0.405,–,–,–,–,–,–,–,–,–,–
SW 900,0.447,0.57,0.462,0.495,0.484,0.677,0.563,0.589,0.567,0.559,0.533,0.529,0.601,0.584,–,–,–,–,0.681,–
IA-LM,–,–,–,–,–,–,–,–,–,–,–,–,–,–,0.726,0.834,0.729,0.568,–,0.535
EBC-1,–,–,–,–,–,–,–,–,–,–,–,–,–,–,0.739,0.865,0.752,0.623,–,0.793
